20 compounds from patent publication US11802120B2, “Fused cyclic urea derivatives as CRHR2 antagonist” (RaQualia Pharma Inc., priority 2018, dated 2023) can be followed below.

Some results are limits rather than exact numbers.

This assay concerns the target T1, human CRHR2-alpha (Homo sapiens, UniProt Q13324).
T1 sequence (Q13324 1-411): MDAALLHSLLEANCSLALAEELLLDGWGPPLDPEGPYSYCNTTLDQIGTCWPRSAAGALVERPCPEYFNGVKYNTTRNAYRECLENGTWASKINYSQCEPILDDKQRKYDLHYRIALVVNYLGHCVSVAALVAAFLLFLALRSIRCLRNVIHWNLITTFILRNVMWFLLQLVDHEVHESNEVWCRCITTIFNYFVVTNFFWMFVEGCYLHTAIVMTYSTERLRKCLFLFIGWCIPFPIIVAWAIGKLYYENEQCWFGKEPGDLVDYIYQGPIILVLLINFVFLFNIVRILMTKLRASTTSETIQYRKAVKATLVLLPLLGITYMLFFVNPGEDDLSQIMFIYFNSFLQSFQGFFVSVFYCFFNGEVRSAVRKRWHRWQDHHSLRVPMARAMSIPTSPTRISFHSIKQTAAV
Put plainly: cAMP functional assay for human CRHR2 (LANCE Ultra cAMP, TR-FRET). The settings on record: CHO-K1 cells expressing human CRHR2-alpha, agonist human urocortin2 at EC80, cAMP; read-out: IC50 against CRHR2. The assay is classed as cell-based. The method, then: cAMP functional assay for human CRHR1 and CRHR2
The ability of the compounds of this invention to inhibit either CRHR2 or CRHR1 is assessed by 3′,5′-cyclic adenosine monophosphate (cAMP) production in cells using the LANCE Ultra cAMP assay kit (ParkinElmer), which are designed based on the homogeneous time-resolved fluorescence resonance energy transfer (TR-FRET) immunoassay.
CHO-K1 (Chinese hamster ovary) cells stably expressing either human CRHR2-alpha (DiscoveRX, Cat. 95-0048C2) or human CRHR1-beta (DiscoveRX, Cat. 95-0047C2) are grown in HAM's F12 media supplemented with 10% fetal bovine serum (FBS), 100 units/mL penicillin, 100 microg/mL hygromycin and 0.5 microg/mL geneticin at 37° C. in 5% CO2 humidified incubator to 80% confluence. After 7 hours starvation treatment in culture media containing 0.1% FBS, the cells are washed with Hanks balanced salt solution (HBSS) and cryopreserved.
For cAMP assay, frozen cells are thawed and washed with HBSS, followed by resuspended in assay buffer (HBSS containing 0.1% bovine serum albumin, 0.5 mM isobutylmethylxanthine and 5 mM Hepes, pH 7.4) at the appropriate concentration for the assay. The cell suspensions are plated on 384-well microplates (Greiner Bio-One) at a density of 4,000 cells per well. After preincubating the cells with various concentrations of the compounds for 30 min at 25° C., an assay buffer containing EC80 concentration of each agonist is added and the cells are incubated for 30 min at 25° C. Human urocortin2 (Peptide Institute) and CRF (Peptide Institute) are used as agonists for CRHR2 and CRHR1, respectively. For the termination of assay, europium-labeled cAMP tracer and ULight (registered trademark) dye labeled cAMP antibodies, both prepared with Lance-Ultra cAMP detection reagent (Perkin Elmer) are added in the plate and incubate for 60 min at 25° C. After incubation, TR-FRET signal is detected by EnVision plate reader (PerkinElmer). The IC50 values for compounds are calculated from dose-response curves by fitting the percent inhibition using XLfit (ID Business Solutions).
(In general: TR-FRET usually uses a lanthanide donor and a delayed reading to cut background.)
`Cc1ncc(Cl)cc1C(=O)N[C@H]1CC[C@H](Cn2c(=O)n(-c3ccc(Br)nc3)c3ccccc32)CC1` [Example 66, N((1r,4r)-4-((3-(6-bromopyridin-3-yl)-2-oxo-2,3-dihydro-1H-benzo[d]imidazol-1-yl)methyl)cyclohexyl)-5-chloro-2-methylnicotinamide]: the half-inhibitory concentration (IC50) (in general, the concentration needed to halve the response being measured) is less than 300 nM.

For `C=Cc1ccc(-n2c(=O)n(C[C@H]3CC[C@H](NC(=O)c4cc(Cl)cnc4C)CC3)c3ccccc32)cn1` [Example 70, 5-chloro-2-methyl-N-((1r,4r)-4-((2-oxo-3-(6-vinylpyridin-3-yl)-2,3-dihydro-1H-benzo[d]imidazol-1-yl)methyl)cyclohexyl)nicotinamide], the IC50 is less than 300 nM. As for `CCc1ccc(-n2c(=O)n(C[C@H]3CC[C@H](NC(=O)c4cc(Cl)cnc4C)CC3)c3ccccc32)cn1` [Example 72, 5-chloro-N-((1r,4r)-4-((3-(6-ethylpyridin-3-yl)-2-oxo-2,3-dihydro-1H-benzo[d]imidazol-1-yl)methyl)cyclohexyl)-2-methylnicotinamide], the figure is less than 300 nM; as for `C=Cc1cc(-n2c(=O)n(C[C@H]3CC[C@H](NC(=O)c4cc(Cl)cnc4C)CC3)c3ccccc32)ccn1` [Example 82, 5-chloro-2-methyl-N-((1r,4r)-4-((2-oxo-3-(2-vinylpyridin-4-yl)-2,3-dihydro-1H-benzo [d]imidazol-1-yl)methyl)cyclohexyl)nicotinamide], less than 300 nM; as for `Cc1ncc(Cl)cc1C(=O)N[C@H]1CC[C@H](Cn2c(=O)n(-c3ccc(C4=CCOCC4)nc3)c3ccccc32)CC1` [Example 84, 5-chloro-N-((1r,4r)-4-((3-(6-(3,6-dihydro-2H-pyran-4-yl)pyridin-3-yl)-2-oxo-2,3-dihydro-1H-benzo[d]imidazol-1-yl)methyl)cyclohexyl)-2-methylnicotinamide], less than 300 nM. Turning to `Cc1ncc(Cl)cc1C(=O)N[C@H]1CC[C@H](Cn2c(=O)n(-c3ccc(C4CC4)nc3)c3ccccc32)CC1` [Example 86, 5-chloro-N-((1r,4r)-4-((3-(6-cyclopropylpyridin-3-yl)-2-oxo-2,3-dihydro-1H-benzo[d]imidazol-1-yl)methyl)cyclohexyl)-2-methylnicotinamide], the 50% inhibitory concentration (IC50) was less than 300 nM. To `Cc1ncc(Cl)cc1C(=O)N[C@H]1CC[C@H](Cn2c(=O)n(-c3ccc(-c4ccccc4)nc3)c3ccccc32)CC1` [Example 89, 5-chloro-2-methyl-N-((1r,4r)-4-((2-oxo-3-(6-phenylpyridin-3-yl)-2,3-dihydro-1H-benzo[d]imidazol-1-yl)methyl)cyclohexyl)nicotinamide] belongs less than 300 nM; to `Cc1ncc(Cl)cc1C(=O)N[C@H]1CC[C@H](Cn2c(=O)n(-c3ccc(-c4ccccc4CO)nc3)c3ccccc32)CC1` [Example 90, 5-chloro-N-((1r,4r)-4-((3-(6-(2-(hydroxymethyl)phenyl)pyridin-3-yl)-2-oxo-2,3-dihydro-1H-benzo[d]imidazol-1-yl)methyl)cyclohexyl)-2-methylnicotinamide], less than 300 nM; to `Cc1ncc(Cl)cc1C(=O)N[C@H]1CC[C@H](Cn2c(=O)n(-c3ccc(N4CCCC(O)C4)nc3)c3ccccc32)CC1` (some centres unmarked) [Example 95, 5-chloro-N-((1r,4r)-4-((3-(6-(3-hydroxypiperidin-1-yl)pyridin-3-yl)-2-oxo-2,3-dihydro-1H-benzo[d]imidazol-1-yl)methyl)cyclohexyl)-2-methylnicotinamide], less than 300 nM. With `Cc1ncc(Cl)cc1C(=O)N[C@H]1CC[C@H](Cn2c(=O)n(-c3ccc(N4CCC(O)CC4)nc3)c3ccccc32)CC1` [Example 96, 5-chloro-N-((1r,4r)-4-((3-(6-(4-hydroxypiperidin-1-yl)pyridin-3-yl)-2-oxo-2,3-dihydro-1H-benzo[d]imidazol-1-yl)methyl)cyclohexyl)-2-methylnicotinamide], the concentration for half-maximal inhibition (IC50) was less than 300 nM. To `Cc1ncc(Cl)cc1C(=O)N[C@H]1CC[C@H](Cn2c(=O)n(-c3ccc(OC(F)F)nc3)c3ccccc32)CC1` [Example 97, 5-chloro-N-((1r,4r)-4-((3-(6-(difluoromethoxy)pyridin-3-yl)-2-oxo-2,3-dihydro-1H-benzo[d]imidazol-1-yl)methyl)cyclohexyl)-2-methylnicotinamide] belongs less than 300 nM; to `Cc1ncc(Cl)cc1C(=O)N[C@H]1CC[C@H](Cn2c(=O)n(-c3ccc(NC4CC4)nc3)c3ccccc32)CC1` [Example 101, 5-chloro-N-((1r,4r)-4-((3-(6-(cyclopropylamino)pyridin-3-yl)-2-oxo-2,3-dihydro-1H-benzo[d]imidazol-1-yl)methyl)cyclohexyl)-2-methylnicotinamide], less than 300 nM. With `Cc1ncc(Cl)cc1C(=O)N[C@H]1CC[C@H](Cn2c(=O)n(-c3ccc(NCC4CC4)nc3)c3ccccc32)CC1` [Example 105, 5-chloro-N-((1r,4r)-4-((3-(6-((cyclopropylmethyl)amino)pyridin-3-yl)-2-oxo-2,3-dihydro-1H-benzo[d]imidazol-1-yl)methyl)cyclohexyl)-2-methylnicotinamide], the IC50 is less than 300 nM. As for `Cc1ncc(Cl)cc1C(=O)N[C@H]1CC[C@H](Cn2c(=O)n(-c3ccc(N[C@@H]4CCOC4)nc3)c3ccccc32)CC1` [Example 107, 5-chloro-2-methyl-N-((1R,4R)-4-((2-oxo-3-(6-(((R)-tetrahydro-furan-3-yl)amino)pyridin-3-yl)-2,3-dihydro-1H-benzo[d]imidazol-1-yl)methyl)cyclohexyl) nicotinamide], the figure is less than 300 nM; as for `Cc1ncc(Cl)cc1C(=O)N[C@H]1CC[C@H](Cn2c(=O)n(-c3ccc(NC4CC(F)(F)C4)nc3)c3ccccc32)CC1` [Example 108, 5-chloro-N-((1r,4r)-4-((3-(6-((3,3-difluorocyclobutyl)amino)pyridin-3-yl)-2-oxo-2,3-dihydro-1H-benzo[d]imidazol-1-yl)methyl)cyclohexyl)-2-methylnicotinamide], less than 300 nM.

With `Cc1ncc(Cl)cc1C(=O)N[C@H]1CC[C@H](Cn2c(=O)n(-c3ccc(NC[C@@H]4CCCO4)nc3)c3ccccc32)CC1` [Example 109, 5-chloro-2-methyl-N-((1S,4r)-4-((2-oxo-3-(6-((((S)-tetrahydro-furan-2-yl)methyl)amino)pyridin-3-yl)-2,3-dihydro-1H-benzo[d]imidazol-1-yl)methyl)cyclohexyl)nicotinamide], the IC50 is less than 300 nM. In the case of `Cc1ncc(Cl)cc1C(=O)N[C@H]1CC[C@H](Cn2c(=O)n(-c3ccc(NC[C@H]4CCCO4)nc3)c3ccccc32)CC1` [Example 110, 5-chloro-2-methyl-N-((1R,4r)-4-((2-oxo-3-(6-((((R)-tetra-hydrofuran-2-yl)methyl)amino)pyridin-3-yl)-2,3-dihydro-1H-benzo[d]imidazol-1-yl)methyl)cyclohexyl)nicotinamide], the IC50 is less than 300 nM. To `Cc1ncc(Cl)cc1C(=O)N[C@H]1CC[C@H](Cn2c(=O)n(-c3ccc(N4CCCC4=O)nc3)c3ccccc32)CC1` [Example 111, 5-chloro-2-methyl-N-((1r,4r)-4-((2-oxo-3-(6-(2-oxopyrrolidin-1-yl)pyridin-3-yl)-2,3-dihydro-1H-benzo[d]imidazol-1-yl)methyl)cyclohexyl)nicotinamide] belongs less than 300 nM; to `Cc1ncc(Cl)cc1C(=O)N[C@H]1CC[C@H](Cn2c(=O)n(-c3ccc(OCC4CC4)nc3)c3ccccc32)CC1` [Example 112, 5-chloro-N-(4-((3-(6-(cyclopropylmethoxy)pyridin-3-yl)-2-oxo-2,3-dihydro-1H-benzo [d]imidazol-1-yl)methyl)cyclohexyl)-2-methylnicotinamide], less than 300 nM. Consider `Cc1ncc(Cl)cc1C(=O)N[C@H]1CC[C@H](Cn2c(=O)n(-c3ccc(OC4CC4)nc3)c3ccccc32)CC1` [Example 113, 5-chloro-N-(4-((3-(6-cyclopropoxypyridin-3-yl)-2-oxo-2,3-dihydro-1H-benzo [d]imidazol-1-yl)methyl)cyclohexyl)-2-methylnico-tinamide], for which the 50% inhibitory concentration (IC50) was less than 300 nM.
